Reference: patent US20250263423A1, “INHIBITORS OF RAS ONCOPROTEINS” (BridGene Biosciences, Inc., priority 2021, published 2025)

target: Kras G12D (Homo sapiens (Human), UniProt P01116, G12D); experiment: HTRF-based nucleotide exchange assay detecting GTP binding to K-Ras; format: biochemical; settings: SOS1 (aa 564-1049), fluorescently labelled GTP, compound incubated 1 h at RT
Description: Kras G12D was mixed with a-GST Tb antibody (1.5× solution) and 10 uL was delivered to reaction wells. A mixture of Kras G12D/aGST-Tb Ab/compound mixture was incubated for 1 h at RT. A 3× solution of SOS1 (aa 564-1049) and fluorescently labelled GTP* was prepared in reaction buffer and 5 μL of SOS1/GTP* solution was added to reaction well to initiate the exchange reaction. An IC50 was determined using a sigmoidal dose response (variable slope) equation. Note: Assay IC50 data are designated within the following ranges: A: ≤10 nM, B: >10 nM to ≤1000 nM, C: >1000 nM

Chain of Kras G12D (P01116-2 other isoform, or with tags, fused parts or gaps G12D): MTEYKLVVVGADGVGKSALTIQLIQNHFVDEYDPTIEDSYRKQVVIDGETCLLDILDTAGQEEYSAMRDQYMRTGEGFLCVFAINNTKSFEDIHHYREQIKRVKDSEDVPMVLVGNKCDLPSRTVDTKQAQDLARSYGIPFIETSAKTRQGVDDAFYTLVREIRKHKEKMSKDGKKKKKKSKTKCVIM

| Compound | IC50 [nM] |
| --- | --- |
| C#Cc1cccc2cc(O)cc(-c3ncc4c(N5CC6CC(C5)N6)nc(OCC56CCCN5CCC6)nc4c3F)c12 [Example 8, 4-[4-(3,6-diazabicyclo[3.1.1]heptan-3-yl)-8-fluoro-2-(1,2,3,5,6,7-hexahydropyrrolizin-8-ylmethoxy)pyrido[4,3-d]pyrimidin-7-yl]-5-ethynyl-naphthalen-2-ol] | ≤ 10 |
| Fc1c(-c2cccc3cccc(Cl)c23)ncc2c(N3C[C@H]4CC[C@@H](C3)N4)nc(OCC34CCCN3CCC4)nc12 [Example 3, 4-((1R,5S)-3,8-diazabicyclo[3.2.1]octan-3-yl)-7-(8-chloronaphthalen-1-yl)-8-fluoro-2-((tetrahydro-1H-pyrrolizin-7a(5H)-yl)methoxy)pyrido[4,3-d]pyrimidine] | ≤ 10 |
| C[C@@H]1CN(c2nc(OCC34CCCN3CCC4)nc3c(F)c(-c4cccc5cccc(Cl)c45)ncc23)C[C@H](C)N1 [Example 1, 7-(8-chloronaphthalen-1-yl)-4-((3R,5S)-3,5-dimethylpiperazin-1-yl)-8-fluoro-2-((tetrahydro-1H-pyrrolizin-7a(5H)-yl)methoxy)pyrido[4,3-d]pyrimidine] | > 1000 |
| Fc1c(-c2cccc3cccc(Cl)c23)ncc2c(N3CC4CNCC4C3)nc(OCC34CCCN3CCC4)nc12 [Example 5, 4-[(3aR, 6aS)-2,3,3a,4,6,6a-hexahydro-1H-pyrrolo[3,4-c]pyrrol-5-yl]-7-(8-chloro-1-naphthyl)-8-fluoro-2-(1,2,3,5,6,7-hexahydropyrrolizin-8-ylmethoxy)pyrido[4,3-d]pyrimidine] | > 1000 |
| C#Cc1cccc2cc(O)cc(-c3ncc4c(N5CC6COCC(C5)N6)nc(OCC56CCCN5CCC6)nc4c3F)c12 [Example 4, 4-(4-(3-oxa-7,9-diazabicyclo[3.3.1]nonan-7-yl)-8-fluoro-2-((tetrahydro-1H-pyrrolizin-7a(5H)-yl)methoxy)pyrido[4,3-d]pyrimidin-7-yl)-5-ethynylnaphthalen-2-ol] | ≤ 10 |
| C#Cc1cccc2cc(O)cc(-c3ncc4c(N5C[C@@H]6C[C@H]5CN6)nc(OCC56CCCN5CCC6)nc4c3F)c12 (stereo in doubt) [Example 6, 4-(4-((1S,4S)-2,5-diazabicyclo[2.2.1]heptan-2-yl)-8-fluoro-2-((tetrahydro-1H-pyrrolizin-7a(5H)-yl)methoxy)pyrido[4,3-d]pyrimidin-7-yl)-5-ethynylnaphthalen-2-ol] | ≤ 10 |
| C[C@H]1CN(c2nc(OCC34CCCN3CCC4)nc3c(F)c(-c4cccc5cccc(Cl)c45)ncc23)C[C@H](C)N1 [Example 2, 7-(8-chloronaphthalen-1-yl)-4-((3S,5S)-3,5-dimethylpiperazin-1-yl)-8-fluoro-2-((tetrahydro-1H-pyrrolizin-7a(5H)-yl)methoxy)pyrido[4,3-d]pyrimidine] | 10 to 1000 |
| C#Cc1cccc2cc(O)cc(-c3ncc4c(N5CC6CCCC(C5)N6)nc(OCC56CCCN5CCC6)nc4c3F)c12 [Example 7, 4-(4-(3,9-diazabicyclo[3.3.1]nonan-3-yl)-8-fluoro-2-((tetrahydro-1H-pyrrolizin-7a(5H)-yl)methoxy)pyrido[4,3-d]pyrimidin-7-yl)-5-ethynylnaphthalen-2-ol] | ≤ 10 |
